{"source": "patent US20130052190A1", "about": "“CRTH2 Antagonists for Treatment of Eosinophilic Diseases and Conditions” (Oxagen Limited, priority 2011, published 2013)", "key": {"[1]": {"test_system": "patients with mild to moderate asthma", "experiment": "4 week study in patients with mild to moderate asthma (FEV1)", "format": "in vivo, human", "details": "after 4 weeks, 100 mg twice daily", "description": "4 Week Study in Patients with Mild to Moderate Asthma\nThe study was a randomized, double blind, placebo controlled study of (5-fluoro-2-methyl-3-quinolin-2-ylmethyl-indol-1-yl)-acetic acid (OC000459) for 28 days in patients with mild to moderate asthma with a FEV1 of 60-80% of predicted and requiring only short acting inhaled β2 agonists for symptomatic control. The study compared patients taking 100 mg of OC000459 twice daily with patients taking a placebo twice daily. The study consisted of 112 patients with 53 patients taking OC000459 and 59 patients taking the placebo.\n1. Males and females aged 18-55 years. 2. Asthma controlled by short-acting β2 agonists only. 3. Mild to moderate persistent asthma according to GINA4 guidelines for at least 12 months. 4. Non-smokers for at least the past 12 months with a pack history of less than 10 pack years. 5. History of asthma symptoms increasing in response to external allergens. 6. Testing positive on skin prick test to an allergen associated with the patient's allergen.\n1. Receipt of prescribed or over-the-counter medication within 14 days prior to the first study day. 2. Use of inhaled or local corticosteroids in the period 28 days prior to screening."}, "[2]": {"test_system": "patients with mild to moderate persistent asthma", "experiment": "12 week study in patients with mild to moderate persistent asthma (FEV1)", "format": "in vivo, human", "details": "for FEV1 Improvement: 12 weeks, patient population on OC000459; for improvement in FEV1 over patients given the placebo / improvement in FEV1 over baseline: after 12 weeks", "description": "12 Week Study in Patients with Mild to Moderate Persistent Asthma\nThe study was a randomized, double blind, placebo controlled, four arm study of three dosage levels of (5-fluoro-2-methyl-3-quinolin-2-ylmethyl-indol-1-yl)-acetic acid (OC000459) tablets in patients with asthma controlled by β2 agonists alone. The study compared patients on OC000459 at three different dose levels (25 mg once daily, 100 mg twice daily, and 200 mg once daily) with patients on placebo after dosing for 12 weeks. The study consisted of 460 patients which yielded 440 evaluable results with 110 patients per arm. There was a screening period of 1 to 2 weeks, followed by placebo run-in for 3 weeks before the treatment period. There was a placebo wash-out for two weeks following the treatment period with a follow-up 3 to 5 weeks after the treatment period.\n1. Males and females aged 18-55 years. 2. Asthma controlled by short-acting β2 agonists only. 3. Mild to moderate persistent asthma according to GINA4 guidelines for at least 12 months. 4. Non-smokers for at least the past 12 months with a pack history of less than 10 pack years.\nReceipt of prescribed or over-the-counter medication within 14 days prior to the first study day.\n1. Morning FEV1 of 60-85% of predicted. 2. Reversibility of ≧12% after salbutamol. 3. Greater than 1 puff per day of salbutamol required."}, "[3]": {"details": "blood eosinophil count greater than or equal to 250/μL, FIG. 6(b)"}, "[4]": {"details": "full population (112 patients), FIG. 6(a)"}, "[5]": {"details": "FEV1 60-80% of predicted and positive skin prick test at baseline, FIG. 1"}, "[6]": {"details": "FEV1 60-80% of predicted, blood eosinophil count greater than or equal to 250/μL, positive skin prick test, FIG. 2"}}, "data": [{"smiles": "Cc1c(Cc2ccc3ccccc3n2)c2cc(F)ccc2n1CC(=O)O", "note": "[OC000459, (5-fluoro-2-methyl-3-quinolin-2-ylmethyl-indol-1-yl)-acetic acid]", "values": [{"measurement": "improvement in FEV1 over baseline", "setting": "[1]; [3]", "value": 250, "unit": "mL"}, {"measurement": "improvement in FEV1 over patients given the placebo", "setting": "[1]; [3]", "value": 180, "unit": "mL"}, {"measurement": "improvement in FEV1 over patients given the placebo", "setting": "[1]; blood eosinophil count less than 250/μL, FIG. 6(c)", "value": "only a small improvement"}, {"measurement": "improvement in FEV1 over baseline", "setting": "[1]; [4]", "value": 190, "unit": "mL"}, {"measurement": "improvement in FEV1 over patients given the placebo", "setting": "[1]; [4]", "value": 100, "unit": "mL"}, {"measurement": "FEV1 Improvement", "setting": "[2]; 60-80% FEV1 Atopic", "value": 130, "unit": "mL"}, {"measurement": "FEV1 Improvement", "setting": "[2]; All-Comers", "value": 100, "unit": "mL"}, {"measurement": "FEV1 Improvement", "setting": "[2]; Hi-eosinophil count (>250/μL)", "value": 188, "unit": "mL"}, {"measurement": "improvement in FEV1 over patients given the placebo", "setting": "[2]; ACQ score greater than or equal to 1.5 at baseline, FIG. 4", "value": 140, "unit": "mL"}, {"measurement": "improvement in FEV1 over patients given the placebo", "setting": "[2]; ACQ score less than 1.5 at baseline, FIG. 5", "value": 30, "unit": "mL"}, {"measurement": "improvement in FEV1 over baseline", "setting": "[2]; [5]", "value": 191, "unit": "mL"}, {"measurement": "improvement in FEV1 over patients given the placebo", "setting": "[2]; [5]", "value": 130, "unit": "mL"}, {"measurement": "improvement in FEV1 over baseline", "setting": "[2]; [6]", "value": 184, "unit": "mL"}, {"measurement": "improvement in FEV1 over patients given the placebo", "setting": "[2]; [6]", "value": 188, "unit": "mL"}, {"measurement": "improvement in FEV1 over patients given the placebo", "setting": "[2]; FEV1 60-80% of predicted, blood eosinophil count less than 250/μL, positive skin prick test, FIG. 3", "value": 76, "unit": "mL"}]}]}
